Columns and labels:
[1] = skin sensitization test (LLNA, Local Lymph Node Assay, OECD test guideline 429), Stimulation Index; format: in vivo; settings: SI less than 3 judged negative
Excerpt: As described in literatures (for example, “Functional Material” (Kino Zairyou) 2005, September, Vol. 25, No. 9, p. 55), the compound having a Stimulation Index (SI value) of less than 3, where the Stimulation Index indicates the extent of skin sensitization, is judged as being negative for skin sensitization. […] The lower SI value means lower skin sensitization. […] The SI value of the monomer or the oligomer used is preferably 2 or lower, more preferably 1.6 or lower.
The description “negative” or “none” is equivalent to the SI value of less than 3.

[2] = equivalent to SI value of less than 3, cited from earlier work

| Compound | SI value (Stimulation Index) [1] | further results |
| --- | --- | --- |
| C=C(C)C(=O)OCC(C)(C)COC(=O)C(=C)C [Example A1, Neopentyl glycol dimethacrylate] | 2.0 |  |
| C=C(C)C(=O)OCC(CC)(COC(=O)C(=C)C)COC(=O)C(=C)C [Example A5, Trimethylolpropane trimethacrylate] | 1.9 |  |
| C=CC(=O)OCCCCCCCCCCCCCCCCCC [Example A12, Stearyl acrylate] | 2.7 |  |
| C=C(C)C(=O)OCCCCOC(=O)C(=C)C [Example A13, 1,4-Butanediol dimethacrylate] | 2.6 |  |
| C=C(C)C(=O)OC(C)(C)C [Example A15, t-Butyl methacrylate] |  | skin sensitization evaluated in literature [2]: negative |
| C=C(C)C(=O)OCCCCC [Example A16, n-Pentyl methacrylate] |  | skin sensitization evaluated in literature [2]: negative |
| C=C(C)C(=O)OCCCCCC [Example A17, n-Hexyl methacrylate] |  | skin sensitization evaluated in literature [2]: negative |
| C=CC(=O)OCCCCCCCCCCCCCCCC(C)C [Example A19, Isostearyl acrylate] | 1.4 |  |
| C=C(C)C(=O)OCCCCCCCCCCCCCCCCCC [Example A21, Stearyl methacrylate] | 1.2 |  |
| Caprolactone-modified dipentaerythritol hexaacrylate [Example A7] |  | skin sensitization evaluated in MSDS ([2]; MSDS): negative |
| Polyethoxylated tetramethylolmethane tetraacrylate [Example A9] | 1.7 |  |
| Polyethylene glycol dimethacrylate represented by General Formula (1) (n is nearly equal to 2) [Example A23] | 1.1 |  |
| Polyethylene glycol dimethacrylate represented by General Formula (1) (n is nearly equal to 14) [Example A3] | 1.6 |  |
| Polyethylene glycol dimethacrylate represented by the following General Formula (1) (n is nearly equal to 9) [Example A2] | 1.3 |  |
| Polypropylene glycol diacrylate [Example A14, Polypropylene glycol diacrylate [CH2═CH—CO—(OC3H6)n—OCOCH═CH2 (n is nearly equal to 12)]] | 1.5 |  |
| Tricyclodecanedimethanol dimethacrylate [Example A6] | 1.3 |  |
| γ-Butyrolactone methacrylate [Example A4] | 2.1 |  |

Source: patent US9493663B2, “Photopolymerizable inkjet ink, ink cartridge, and printer” (RICOH COMPANY, LTD., priority 2011, dated 2016)
